Results from patent US20250084056A1, “SUBSTITUTED OXOISOINDOLINYL PIPERIDINE-2,6-DIONE COMPOUNDS” (BRISTOL-MYERS SQUIBB COMPANY, priority 2023, published 2025).
pIC50: −log10 of the molar value. Values belong to the compound of their own block, whether it stands above or below them.

What was measured:
Type in all cases: cell-based
[1] = biological target: Cyclin E1 (Homo sapiens, UniProt P24864+Q96SW2); assay: Cyclin E1 Cellular Degradation Assay (MSD); parameters: endogenous in cells; host or cells: OVCAR3; conditions: for DC50 / Dmax: Cyclin E1 cellular degradation; for Dmax: maximum degradation; for Ratio of GSPT1 DC50/Cyclin E1 DC50: selectivity for degradation of Cyclin E1 over GSPT1
Outline: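 OVCAR3 cells treated with compound for 24 h at 37 °C, lysed, and cyclin E1 measured by MSD sandwich immunoassay (rabbit capture, mouse detection anti-CCNE1). Reference degrader at […] defined 110% response; DC50 and Dmax derived from response.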

[2] = system: Phospho-Rb (Ser807/811); assay: Phospho-Retinoblastoma (pRB) Cellular Assay; conditions: NIH OVCAR3 cells, 24 hours; for pIC50: concentration giving 50% response; for Emax: maximum response, reference compound at 10 μM = 100%, read-out: pRB Ymax
Outline: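 OVCAR3 cells seeded overnight, then dosed with serial dilutions for 24 h at 37° C. Lysed with kit mix plus phosphatase inhibitor, ≥4 h at room temperature, read on EnVision; 100% response set by reference compound at 10 μM, giving IC50 and Ymax.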

[3] = biological target: GSPT1 (Homo sapiens, UniProt P15170+Q96SW2); assay: GSPT1 Cellular Degradation Assay (DF15-GSPT1-ePL); parameters: expressed in transfected cells; conditions: DF15-GSPT1-ePL cells, 20 hours
Outline: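 Human DF15 cells co-expressing a GSPT1–ePL fusion were treated with compound in RPMI 1640/10% FBS for 20 h at 37 °C. GSPT1 level was read by enzyme-fragment-complementation luminescence after 60 min with detection reagent. The reference degrader at […] defined 75% response; DC50 and Dmax were reported.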

Chain of GSPT1 (P15170 whole entry, the tested form may be a part): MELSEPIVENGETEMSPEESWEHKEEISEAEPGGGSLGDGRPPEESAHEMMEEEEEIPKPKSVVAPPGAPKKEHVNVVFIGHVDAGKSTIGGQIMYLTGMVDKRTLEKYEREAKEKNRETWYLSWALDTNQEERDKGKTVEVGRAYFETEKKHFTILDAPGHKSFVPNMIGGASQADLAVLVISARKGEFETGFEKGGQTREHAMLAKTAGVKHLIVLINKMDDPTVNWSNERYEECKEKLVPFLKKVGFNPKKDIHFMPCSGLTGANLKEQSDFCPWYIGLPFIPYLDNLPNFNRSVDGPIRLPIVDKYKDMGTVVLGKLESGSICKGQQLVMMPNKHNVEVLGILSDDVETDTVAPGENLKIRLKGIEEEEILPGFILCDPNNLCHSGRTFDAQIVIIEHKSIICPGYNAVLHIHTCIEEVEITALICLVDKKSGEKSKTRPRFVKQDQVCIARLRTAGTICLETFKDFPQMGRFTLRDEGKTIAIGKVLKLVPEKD
Chain of GSPT1 (Q96SW2 whole entry, the tested form may be a part): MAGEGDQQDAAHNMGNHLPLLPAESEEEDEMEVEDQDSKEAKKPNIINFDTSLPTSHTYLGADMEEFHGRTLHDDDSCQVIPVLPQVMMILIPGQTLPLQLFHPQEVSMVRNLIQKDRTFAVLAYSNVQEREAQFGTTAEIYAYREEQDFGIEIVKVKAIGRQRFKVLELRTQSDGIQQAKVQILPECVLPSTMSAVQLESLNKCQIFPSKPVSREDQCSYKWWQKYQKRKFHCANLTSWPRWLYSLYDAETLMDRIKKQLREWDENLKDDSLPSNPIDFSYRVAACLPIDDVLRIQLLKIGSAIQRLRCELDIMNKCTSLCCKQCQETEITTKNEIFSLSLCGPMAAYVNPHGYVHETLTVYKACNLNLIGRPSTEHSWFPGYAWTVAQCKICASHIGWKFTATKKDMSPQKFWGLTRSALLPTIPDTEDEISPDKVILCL
Chain of GSPT1 (Q16531 whole entry partner, the tested form may be a part): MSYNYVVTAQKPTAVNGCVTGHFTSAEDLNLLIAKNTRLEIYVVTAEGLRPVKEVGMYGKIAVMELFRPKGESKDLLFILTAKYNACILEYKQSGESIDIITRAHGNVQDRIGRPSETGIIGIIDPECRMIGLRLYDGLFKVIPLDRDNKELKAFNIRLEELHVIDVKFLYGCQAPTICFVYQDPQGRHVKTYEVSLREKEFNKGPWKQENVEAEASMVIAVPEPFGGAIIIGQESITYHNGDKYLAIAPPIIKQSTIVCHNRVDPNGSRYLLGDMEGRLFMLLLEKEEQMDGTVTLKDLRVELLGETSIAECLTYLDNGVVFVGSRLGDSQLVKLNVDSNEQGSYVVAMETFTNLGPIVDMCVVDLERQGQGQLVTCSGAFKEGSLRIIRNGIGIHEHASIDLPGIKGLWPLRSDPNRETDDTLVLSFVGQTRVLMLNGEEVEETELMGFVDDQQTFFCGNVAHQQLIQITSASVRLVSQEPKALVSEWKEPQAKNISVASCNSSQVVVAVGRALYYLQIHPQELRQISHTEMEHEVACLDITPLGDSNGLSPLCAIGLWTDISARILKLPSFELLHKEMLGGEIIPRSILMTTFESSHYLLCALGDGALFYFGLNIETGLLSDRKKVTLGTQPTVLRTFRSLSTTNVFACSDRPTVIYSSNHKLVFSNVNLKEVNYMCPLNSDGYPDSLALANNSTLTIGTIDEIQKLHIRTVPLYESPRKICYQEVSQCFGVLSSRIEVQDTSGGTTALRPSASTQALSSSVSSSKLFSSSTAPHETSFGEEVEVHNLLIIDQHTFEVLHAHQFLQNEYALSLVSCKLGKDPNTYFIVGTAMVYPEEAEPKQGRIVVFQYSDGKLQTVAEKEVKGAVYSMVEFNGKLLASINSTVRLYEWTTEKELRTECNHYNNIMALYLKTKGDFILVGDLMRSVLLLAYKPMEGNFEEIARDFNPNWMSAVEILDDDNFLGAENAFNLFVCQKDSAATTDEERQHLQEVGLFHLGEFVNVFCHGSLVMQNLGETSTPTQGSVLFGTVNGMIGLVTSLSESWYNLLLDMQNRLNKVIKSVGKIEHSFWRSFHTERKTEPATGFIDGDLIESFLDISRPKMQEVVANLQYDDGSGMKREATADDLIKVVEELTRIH
Chain of Cyclin E1 (P24864 whole entry): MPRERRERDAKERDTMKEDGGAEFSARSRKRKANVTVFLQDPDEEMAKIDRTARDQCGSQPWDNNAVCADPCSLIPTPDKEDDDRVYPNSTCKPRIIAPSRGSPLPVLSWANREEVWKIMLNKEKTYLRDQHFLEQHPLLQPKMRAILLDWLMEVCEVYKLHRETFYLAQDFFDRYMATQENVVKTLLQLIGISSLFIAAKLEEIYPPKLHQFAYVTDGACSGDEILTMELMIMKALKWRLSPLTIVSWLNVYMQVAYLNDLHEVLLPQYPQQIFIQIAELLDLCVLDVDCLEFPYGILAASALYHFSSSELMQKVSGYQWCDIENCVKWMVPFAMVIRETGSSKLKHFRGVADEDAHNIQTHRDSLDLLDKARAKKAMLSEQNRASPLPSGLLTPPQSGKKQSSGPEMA
Chain of Cyclin E1 (Q96SW2 whole entry): as the sequence (Q96SW2 whole entry, the tested form may be a part) above
Chain of Cyclin E1 (Q16531 whole entry partner): as the sequence (Q16531 whole entry partner, the tested form may be a part) above

SMILES: COc1c(COC(=O)Nc2ccc(Oc3c(F)cccc3F)cc2)ccc2c1C(=O)N(C1CCC(=O)NC1=O)C2 (centres unmarked) [Example 112, [2-(2,6-dioxopiperidin-3-yl)-4-methoxy-3-oxo-2,3-dihydro-1H-isoindol-5-yl]methyl N-[4-(2,6-difluorophenoxy)phenyl]carbamate]
- DC50 [1]: 226 nM
- Dmax [1]: 105%
- Ratio of GSPT1 DC50/Cyclin E1 DC50 [1]: >62
- pIC50 ([2]; Homo sapiens, OVCAR-3): 7.34
- Emax ([2]; Homo sapiens, OVCAR-3): 115%
- DC50 [3]: > 14000 nM
- Dmax [3]: 26%

SMILES: COc1c(COC(=O)Nc2ccc(Cc3ccc(F)c(F)c3)cc2)ccc2c1C(=O)N(C1CCC(=O)NC1=O)C2 (centres unmarked) [Example 17, [2-(2,6-dioxopiperidin-3-yl)-4-methoxy-3-oxo-2,3-dihydro-1H-isoindol-5-yl]methyl N-{4-[(3,4-difluorophenyl)methyl]phenyl}carbamate]
- DC50 [1]: 447 nM
- Dmax [1]: 99%
- Ratio of GSPT1 DC50/Cyclin E1 DC50 [1]: >31
- pIC50 ([2]; Homo sapiens, OVCAR-3): 6.65
- Emax ([2]; Homo sapiens, OVCAR-3): 114%
- DC50 [3]: > 14000 nM
- Dmax [3]: 15%

SMILES: O=C1CCC(N2Cc3ccc(COC(=O)Nc4ccc(Oc5ccc(F)c(F)c5)cc4)c(Oc4ccccc4)c3C2=O)C(=O)N1 (centres unmarked) [Example 63, [2-(2,6-dioxopiperidin-3-yl)-3-oxo-4-phenoxy-2,3-dihydro-1H-isoindol-5-yl]methyl N-[4-(3,4-difluorophenoxy)phenyl]carbamate]
- DC50 [1]: 113 nM
- Dmax [1]: 104%
- Ratio of GSPT1 DC50/Cyclin E1 DC50 [1]: >124
- pIC50 ([2]; Homo sapiens, OVCAR-3): 6.87
- Emax ([2]; Homo sapiens, OVCAR-3): 121%
- DC50 [3]: > 14000 nM
- Dmax [3]: 41%

SMILES: COc1c(COC(=O)Nc2ccc(Oc3cc(F)c(F)cc3C)cc2C)ccc2c1C(=O)N(C1CCC(=O)NC1=O)C2 (centres unmarked) [Example 74, [2-(2,6-dioxopiperidin-3-yl)-4-methoxy-3-oxo-2,3-dihydro-1H-isoindol-5-yl]methyl N-[4-(4,5-difluoro-2-methylphenoxy)-2-methylphenyl]carbamate]
- DC50 [1]: 222 nM
- Dmax [1]: 111%
- Ratio of GSPT1 DC50/Cyclin E1 DC50 [1]: >63
- pIC50 ([2]; Homo sapiens, OVCAR-3): 7.28
- Emax ([2]; Homo sapiens, OVCAR-3): 116%
- DC50 [3]: > 14000 nM
- Dmax [3]: 37%

SMILES: O=C1CCC(N2Cc3ccc(COC(=O)Nc4ccc(Oc5ccccc5)cc4)c(Oc4ccccc4)c3C2=O)C(=O)N1 (centres unmarked) [Example 62, [2-(2,6-dioxopiperidin-3-yl)-3-oxo-4-phenoxy-2,3-dihydro-1H-isoindol-5-yl]methyl N-(4-phenoxyphenyl)carbamate]
- DC50 [1]: 98 nM
- Dmax [1]: 102%
- Ratio of GSPT1 DC50/Cyclin E1 DC50 [1]: >143
- pIC50 ([2]; Homo sapiens, OVCAR-3): 6.17
- Emax ([2]; Homo sapiens, OVCAR-3): 94%
- DC50 [3]: > 14000 nM
- Dmax [3]: 33%

SMILES: COc1c(COC(=O)Nc2ccc(Oc3ccc(F)c(F)c3)cc2C)ccc2c1C(=O)N(C1CCC(=O)NC1=O)C2 (centres unmarked) [Example 38, [2-(2,6-dioxopiperidin-3-yl)-4-methoxy-3-oxo-2,3-dihydro-1H-isoindol-5-yl]methyl N-[4-(3,4-difluorophenoxy)-2-methylphenyl]carbamate]
- DC50 [1]: 91 nM
- Dmax [1]: 107%
- Ratio of GSPT1 DC50/Cyclin E1 DC50 [1]: 44
- pIC50 ([2]; Homo sapiens, OVCAR-3): 6.89
- Emax ([2]; Homo sapiens, OVCAR-3): 111%
- DC50 [3]: 4000 nM
- Dmax [3]: 46%

SMILES: CC(C)Oc1c(COC(=O)Nc2ccc(Oc3ccccc3Cl)cc2)ccc2c1C(=O)N(C1CCC(=O)NC1=O)C2 (centres unmarked) [Example 122, [2-(2,6-dioxopiperidin-3-yl)-3-oxo-4-(propan-2-yloxy)-2,3-dihydro-1H-isoindol-5-yl]methyl N-[4-(2-chlorophenoxy)phenyl]carbamate]
- DC50 [1]: 61 nM
- Dmax [1]: 106%
- Ratio of GSPT1 DC50/Cyclin E1 DC50 [1]: >230
- pIC50 ([2]; Homo sapiens, OVCAR-3): 7.27
- Emax ([2]; Homo sapiens, OVCAR-3): 122%
- DC50 [3]: > 14000 nM
- Dmax [3]: 16%

SMILES: COc1c(COC(=O)Nc2ccc(Oc3ccccc3C)cc2)ccc2c1C(=O)N(C1CCC(=O)NC1=O)C2 (centres unmarked) [Example 92, [2-(2,6-dioxopiperidin-3-yl)-4-methoxy-3-oxo-2,3-dihydro-1H-isoindol-5-yl]methyl N-{4-[2-(^2H3)methylphenoxy]phenyl}carbamate]
- DC50 [1]: 170 nM
- pIC50 [2]: 7.47
- DC50 [3]: > 14000 nM

SMILES: COc1cc(Oc2ccc(F)c(C)c2)ccc1NC(=O)OCc1ccc2c(c1OC)C(=O)N(C1CCC(=O)NC1=O)C2 (centres unmarked) [Example 97, [2-(2,6-dioxopiperidin-3-yl)-4-methoxy-3-oxo-2,3-dihydro-1H-isoindol-5-yl]methyl N-[4-(4-fluoro-3-methylphenoxy)-2-methoxyphenyl]carbamate]
- DC50 [1]: 357 nM
- Dmax [1]: 106%
- Ratio of GSPT1 DC50/Cyclin E1 DC50 [1]: >39
- pIC50 ([2]; Homo sapiens, OVCAR-3): 6.49
- Emax ([2]; Homo sapiens, OVCAR-3): 101%
- DC50 [3]: > 14000 nM
- Dmax [3]: 24%

SMILES: CCOc1c(COC(=O)Nc2ccc(Oc3cccc(Cl)c3)cc2)ccc2c1C(=O)N(C1CCC(=O)NC1=O)C2 (centres unmarked) [Example 54, [2-(2,6-dioxopiperidin-3-yl)-4-ethoxy-3-oxo-2,3-dihydro-1H-isoindol-5-yl]methyl N-[4-(3-chlorophenoxy)phenyl]carbamate]
- DC50 [1]: 58 nM
- Dmax [1]: 116%
- Ratio of GSPT1 DC50/Cyclin E1 DC50 [1]: >241
- pIC50 ([2]; Homo sapiens, OVCAR-3): 6.20
- Emax ([2]; Homo sapiens, OVCAR-3): 102%
- DC50 [3]: > 14000 nM
- Dmax [3]: 22%

Continued by falling DC50 [1], values first:

- DC50 [1]: 672 nM
- Dmax [1]: 103%
- Ratio of GSPT1 DC50/Cyclin E1 DC50 [1]: >21
- pIC50 ([2]; Homo sapiens, OVCAR-3): 6.35
- DC50 [3]: > 14000 nM
- Dmax [3]: 31%
SMILES: COc1c(COC(=O)Nc2ccc(Oc3ccc(F)cc3F)cc2F)ccc2c1C(=O)N(C1CCC(=O)NC1=O)C2 (centres unmarked) [Example 30, [2-(2,6-dioxopiperidin-3-yl)-4-methoxy-3-oxo-2,3-dihydro-1H-isoindol-5-yl]methyl N-[4-(2,4-difluorophenoxy)-2-fluorophenyl]carbamate]
- Emax ([2]; Homo sapiens, OVCAR-3): 107%

- DC50 [1]: 417 nM
- Dmax [1]: 96%
- Ratio of GSPT1 DC50/Cyclin E1 DC50 [1]: >34
- pIC50 ([2]; Homo sapiens, OVCAR-3): 6.52
- DC50 [3]: > 14000 nM
- Dmax [3]: 24%
SMILES: COc1c(COC(=O)Nc2ccc(Oc3cc(Cl)cc(Cl)c3)cc2F)ccc2c1C(=O)N(C1CCC(=O)NC1=O)C2 (centres unmarked) [Example 118, [2-(2,6-dioxopiperidin-3-yl)-4-methoxy-3-oxo-2,3-dihydro-1H-isoindol-5-yl]methyl N-[4-(3,5-dichlorophenoxy)-2-fluorophenyl]carbamate]
- Emax ([2]; Homo sapiens, OVCAR-3): 105%

- DC50 [1]: 217 nM
- Dmax [1]: 108%
- Ratio of GSPT1 DC50/Cyclin E1 DC50 [1]: 48
- pIC50 ([2]; Homo sapiens, OVCAR-3): 6.61
- DC50 [3]: 10300 nM
- Dmax [3]: 63%
SMILES: COc1c(COC(=O)Nc2ccc(Oc3ccc4ccsc4c3)cc2)ccc2c1C(=O)N(C1CCC(=O)NC1=O)C2 (centres unmarked) [Example 115, [2-(2,6-dioxopiperidin-3-yl)-4-methoxy-3-oxo-2,3-dihydro-1H-isoindol-5-yl]methyl N-[4-(1-benzothiophen-6-yloxy)phenyl]carbamate]
- Emax ([2]; Homo sapiens, OVCAR-3): 114%

- DC50 [1]: 176 nM
- Dmax [1]: 109%
- Ratio of GSPT1 DC50/Cyclin E1 DC50 [1]: >80
- pIC50 ([2]; Homo sapiens, OVCAR-3): 7.07
- DC50 [3]: > 14000 nM
- Dmax [3]: 37%
SMILES: CCOc1c(COC(=O)Nc2ccc(Oc3ccc(F)c(F)c3)cc2)ccc2c1C(=O)N(C1CCC(=O)NC1=O)C2 (centres unmarked) [Example 53, [2-(2,6-dioxopiperidin-3-yl)-4-ethoxy-3-oxo-2,3-dihydro-1H-isoindol-5-yl]methyl N-[4-(3,4-difluorophenoxy)phenyl]carbamate]
- Emax ([2]; Homo sapiens, OVCAR-3): 99%

- DC50 [1]: 159 nM
- Dmax [1]: 106%
- Ratio of GSPT1 DC50/Cyclin E1 DC50 [1]: >88
- pIC50 ([2]; Homo sapiens, OVCAR-3): 6.95
- DC50 [3]: > 14000 nM
- Dmax [3]: 19%
SMILES: CC(C)Oc1c(COC(=O)Nc2ccc(Oc3ccc(F)c(F)c3)cc2)ccc2c1C(=O)N(C1CCC(=O)NC1=O)C2 (centres unmarked) [Example 56, [2-(2,6-dioxopiperidin-3-yl)-3-oxo-4-(propan-2-yloxy)-2,3-dihydro-1H-isoindol-5-yl]methyl N-[4-(3,4-difluorophenoxy)phenyl]carbamate]
- Emax ([2]; Homo sapiens, OVCAR-3): 127%

- DC50 [1]: 112 nM
- Dmax [1]: 99%
- Ratio of GSPT1 DC50/Cyclin E1 DC50 [1]: >125
- pIC50 ([2]; Homo sapiens, OVCAR-3): 6.84
- DC50 [3]: > 14000 nM
- Dmax [3]: 10%
SMILES: O=C1CCC(N2Cc3ccc(COC(=O)Nc4ccc(Oc5ccc(F)cc5F)cc4)c(Oc4ccccc4)c3C2=O)C(=O)N1 (centres unmarked) [Example 67, [2-(2,6-dioxopiperidin-3-yl)-3-oxo-4-phenoxy-2,3-dihydro-1H-isoindol-5-yl]methyl N-[4-(2,4-difluorophenoxy)phenyl]carbamate]
- Emax ([2]; Homo sapiens, OVCAR-3): 127%

- DC50 [1]: 23 nM
- Dmax [1]: 98%
- Ratio of GSPT1 DC50/Cyclin E1 DC50 [1]: >615
- pIC50 ([2]; Homo sapiens, OVCAR-3): 6.88
- DC50 [3]: > 14000 nM
- Dmax [3]: 16%
SMILES: CC(C)(O)COc1c(COC(=O)Nc2ccc(Oc3ccccc3)cc2)ccc2c1C(=O)N(C1CCC(=O)NC1=O)C2 (centres unmarked) [Example 160, [2-(2,6-dioxopiperidin-3-yl)-4-(2-hydroxy-2-methylpropoxy)-3-oxo-2,3-dihydro-1H-isoindol-5-yl]methyl N-(4-phenoxyphenyl)carbamate]
- Emax ([2]; Homo sapiens, OVCAR-3): 145%

- DC50 [1]: 19 nM
- Dmax [1]: 106%
- Ratio of GSPT1 DC50/Cyclin E1 DC50 [1]: >738
- pIC50 ([2]; Homo sapiens, OVCAR-3): 7.66
- DC50 [3]: > 14000 nM
- Dmax [3]: 19%
SMILES: O=C1CCC(N2Cc3ccc(COC(=O)Nc4ccc(Oc5ccc(F)c(F)c5)cc4)c(OC4CCOCC4)c3C2=O)C(=O)N1 (centres unmarked) [Example 130, [2-(2,6-dioxopiperidin-3-yl)-4-(oxan-4-yloxy)-3-oxo-2,3-dihydro-1H-isoindol-5-yl]methyl N-[4-(3,4-difluorophenoxy)phenyl]carbamate]
- Emax ([2]; Homo sapiens, OVCAR-3): 119%
